Laboratory results published in PubChem BioAssay AID1996.
In brackets after ≈: the same amount, converted by molar mass.

settings: buffer; pH 7.4; 200.0 µM

Row | SMILES | solubility kinetic
1 | Cc1ccc(S(=O)(=O)NCC(=O)Nc2cccc([N+](=O)[O-])c2)cc1 | 22.7 µg/mL (≈ 65 µM)
2 | CC(C)=CC(=O)OCc1cc([N+](=O)[O-])cc2c1OCOC2 | 3.3 µg/mL (≈ 11.3 µM)
3 | O=C(NC(=S)Nc1ncccn1)c1ccccc1Br | 23.5 µg/mL (≈ 69.7 µM)
4 | Cc1cc(C)c2nc(SCC(=O)Nc3cc(C)on3)c(C)cc2c1 | 0.3 µg/mL (≈ 0.879 µM)
5 | O=S(=O)(NCC1CC1)c1ccc(F)c(Cl)c1 | > 39.6 µg/mL
6 | NC(=O)CN1C(=O)C(=O)N(Cc2ccccc2)C1=O | 38.7 µg/mL (≈ 148 µM)
7 | Cc1ccc2nc(SCC(=O)NCc3ccc(F)cc3)[nH]c2c1 | 22.4 µg/mL (≈ 68 µM)
8 | CC(=O)Nc1c2c(nn1-c1ccccc1C)CS(=O)C2 (configuration not stated) | > 43.4 µg/mL
9 | Cc1ccc(S(=O)(=O)N2CCCCC2c2cccnc2)c(C)c1C (configuration not stated) | 45.9 µg/mL (≈ 133 µM)
10 | Cc1ccc(S(=O)(=O)NCC(=O)OCC(=O)N2CC(C)OC(C)C2)cc1 (configuration not stated) | > 57.7 µg/mL
11 | O=C(CNc1cccc(S(=O)(=O)N2CCCC2)c1)Nc1cccc(C(F)(F)F)c1 | 21.1 µg/mL (≈ 49.4 µM)
12 | O=C(NN1CCOCC1)c1cccc(F)c1 | > 33.6 µg/mL
13 | Cc1noc(C)c1S(=O)(=O)Nc1ccc(C#N)cc1 | > 41.6 µg/mL
14 | O=C(O)c1ccc(CNC(=O)c2ccc3c(c2)OCCO3)cc1 | > 47 µg/mL
15 | COc1ccc(NC(=S)NC(=O)/C=C/c2ccc(F)cc2)cc1 | < 0.4 µg/mL
16 | O=C(Nc1ccccc1)c1c(O)c2c(n(Cc3ccco3)c1=O)CCCC2 | < 0.4 µg/mL
17 | COc1ccc(CCNC2CCCCCC2)cc1 | > 37.1 µg/mL
18 | O=C(OCC(=O)N1CCN(C(=O)c2ccco2)CC1)c1ccc(Cl)nc1 | > 56.7 µg/mL
19 | COc1ccc(CCN)cc1O.Cl | > 30.6 µg/mL
20 | Cl.Cn1sccc1=O | 18.4 µg/mL
21 | CCN(c1ccccc1)S(=O)(=O)c1ccc(C(=O)Nc2cccc(NC(C)=O)c2)cc1 | 3.7 µg/mL (≈ 8.46 µM)
22 | O=C(Nc1nnc(Cc2ccc(Cl)cc2)s1)C1CCCO1 (configuration not stated) | > 48.6 µg/mL
23 | O=C(c1ccc(S(=O)(=O)Nc2ccccc2)cc1)N1CCC1 | > 47.5 µg/mL
24 | CC(Sc1nncs1)C(=O)Nc1ccc(S(=O)(=O)Nc2ncccn2)cc1 (configuration not stated) | > 63.4 µg/mL

Row | SMILES | solubility kinetic
25 | CC(C)C(CCNCc1ccccn1)c1ccc(Cl)cc1 (configuration not stated) | 24.8 µg/mL (≈ 81.9 µM)
26 | COc1cc(C(=O)NCCNC(=O)C2CCCNC2=O)cc(OC)c1OC (configuration not stated) | > 56.9 µg/mL
27 | Cn1c(=O)c(C(=O)NC2CCCCCC2)c(O)c2ccccc21 | < 0.3 µg/mL
28 | O=C(NC(=S)Nc1ccccc1[N+](=O)[O-])c1ccccc1 | 4.1 µg/mL (≈ 13.6 µM)
29 | CCN(CC)CC.COc1ccc(-n2c(=S)[nH]c3c(sc(=S)n3-c3ccccc3)c2=O)c(OC)c1 | > 64.4 µg/mL
30 | CCOC(=O)c1cc(C)nc(N2CCCCC2)c1C#N | 11.5 µg/mL (≈ 42.1 µM)
31 | CN(Cc1ccccc1)c1nc(N)nc(Cl)c1C=O | 26.4 µg/mL (≈ 95.4 µM)
32 | O=C1Nc2ccc(Cl)cc2C(C#CC2CC2)(C(F)(F)F)O1 (configuration not stated) | 19.6 µg/mL (≈ 62.1 µM)
33 | Cc1cc(C)cc(NC(=O)N(C)Cc2ccccc2)c1 | 2 µg/mL (≈ 7.45 µM)
34 | C[C@@H](C(=O)Nc1nccs1)N1C(=O)C2CC=CCC2C1=O (some centres not stated) | 42.8 µg/mL (≈ 140 µM)
35 | COc1ccc(NC2=NC(C)(C)CS2)cc1 | 31.4 µg/mL (≈ 133 µM)
36 | O/N=C(\c1ccccc1)C(O)c1ccccc1 (configuration not stated) | > 34.1 µg/mL
37 | Cc1nc(N2CCN(Cc3ccc4c(c3)OCO4)CC2)[nH]c(=O)c1C | > 51.4 µg/mL
38 | O=C(/C=C/c1ccncc1)c1ccc2c(c1)OCCO2 | 26.9 µg/mL (≈ 101 µM)
39 | CCCC[N+]12CCC(CC1)C(Cc1ccccc1)C2.[Br-] (configuration not stated) | > 50.7 µg/mL
40 | O=C(CCNC(=O)c1ccccc1)NCCc1ccc(Cl)cc1 | 6.9 µg/mL (≈ 20.9 µM)
41 | CC(C)(C)c1ccc(C(=O)Nc2ccc(F)cc2)s1 | < 0.6 µg/mL
42 | Fc1ccc(N=Cc2ccc[nH]2)cc1 | 11 µg/mL (≈ 58.4 µM)
43 | O=C(NCc1ccc(Cl)c(Cl)c1)c1ccc2c(c1)OCO2 | 1.5 µg/mL (≈ 4.63 µM)
44 | CCOc1ccc(NC(=O)CCC(=O)Oc2ccc(C)cc2)cc1 | 19.5 µg/mL (≈ 59.6 µM)
45 | CC(C)CN1CCN(Cc2cccc3c2OCO3)CC1CCO (configuration not stated) | > 48.1 µg/mL
46 | CCOC(=O)CN1C(=O)C(=O)N(Cc2c(Cl)cccc2Cl)C1=O | 30.6 µg/mL (≈ 85.2 µM)
47 | Cc1ccc(C(C)C)cc1S(=O)(=O)NCc1ccccn1 | > 45.7 µg/mL
